The values below come from patent US20060189683A1, “Parenteral formulation of mycophenolic acid, a salt or prodrug thereof” (priority 2003, published 2006).

Structures are written as SMILES.

The nature of the data set: Plasma levels of MPA after intravenous continuous infusion in stable renal transplant patients. The settings on record: 12 stable renal transplant patients. Type of data set: in vivo, human. As to the method: 12 ml of the solution of example 2 is given to 12 stable renal transplant patients as an intravenous continuous infusion into an arm vein over 30 min with a constant infusion rate of 0.4 ml/min.
Blood samples are taken for 36 h after dosing at the following time points: 0, 10 min, 20 min, 30 min, 45 min, 1.0 h, 1.5 h, 2.0 h, 4.0 h, 8.0 h, 12.0 h, 24.0 h, 36.0 h from the onset of infusion.

Consider `COc1c(C)c2c(c(O)c1C/C=C(\C)CCC(=O)O)C(=O)OC2` [MPA, Mycophenolic acid], for which the “interpatient variability for AUC0-t” value (12 ml of solution of example 2, i.v. infusion over 30 min) is recorded as “less than 25%”. Further, the half-life (human, iv, 12 ml of the solution of example 2, 12 ml of solution of example 2, i.v. infusion over 30 min, read-out: Mean t1/2 (converted)) was 9.68 h. Besides, under “human, iv, 12 ml of the solution of example 2, 12 ml of solution of example 2, i.v. infusion over 30 min, sampling for 36 h, read-out: Mean MPA AUC0-t”, the AUC(0-t) is 42100 ng·h/mL.
